Results reported in US20170038387A1, “METHODS FOR TREATING CHRONIC LYMPHOCYTIC LEUKEMIA AND THE USE OF BIOMARKERS AS A PREDICTOR OF CLINICAL SENSITIVITY TO IMMUNOMODULATORY THERAPIES” (Celgene Corporation, priority 2015, published 2017).

Legend:
primary CLL samples = assay: TMT-tagging and mass-spectrometry profiling of relative protein abundance after compound exposure; type: cell-based, human
From the text: Data import: Relative abundance (RA) data was imported into the R statistical programming environment v.3.1.2. Proteins with less than one spectral count in any of the three MS runs for each case scenario were filtered out and relative abundance was scale normalized to the same median by using normalizeBetweenArrays( ) function implemented in the limma package for Bioconductor (see Yang et al., Nucleic Acids Research, 30(4), e15 (2002)).
Comparative analysis: RA scores were log 2-transformed to perform direct comparison of compounds exposure versus DMSO control and a paired moderated t-test (see Smyth, Statistical Applications in Genetics and Molecular Biology, 3(1), article 3 (2004)) was performed by using lmfit( ) and eBayes( ) functions form limma package to test differential relative abundance between experimental conditions. For differential analysis across cases, the log-2 fold changes of replicates for two of the case scenarios were considered.
Linear regression analysis: Linear regression was modeled by using lm( ) function from the stats package. This function provided the correlation coefficients as well as the linear fitted model. Data were assessed for outliers detection within the linear model via the Studentized residuals method (implemented in outlierTest( ) function from car package) and deemed significant if their q-values were under a threshold of 0.05 (5%).
The proteins subjected to the analysis were those with more than one spectral count matched in three MS runs representing each case scenario. A total of 6114, 6070, 5982 and 5382 proteins were retained for each case scenario. Differential expression analysis was applied to the high and consistent coverage of 4594 proteins quantified across all case scenarios. FIGS. 2A-2D show distribution of normalized relative abundances for each replicate of the four case scenarios (Cases B1-B4). The standard deviation of each replicate is represented as a stair-plot line at the bottom of the boxplot. FIGS. 3A-3D show heatmaps representing correlations of log 2 fold-changes of protein levels post compound treatment as compared with DMSO across conditions for all case scenarios. Low correlation of log 2 fold-changes at 6 hours may be due to the alteration of a small subset of proteins at an early time point without strong general effects across the proteome. Stronger correlations at 24 hours can be linked to a higher proportion of proteins perturbed reflecting downstream changes upon compound exposure.

[1] = tested on: samples from CLL patients; assay: in vitro proliferation assays on samples from four groups of CLL patients; type: cell-based, human
From the text: The samples used in this study were from four groups of CLL patients.

CLL cell lines = assay: Thymidine incorporation assay (cell proliferation); type: cell-based
Description: After four days, cells were diluted 1:7 with fresh media, containing the same concentration of treatment compound. Three days later, ^3H-thymidine was added to label proliferating cells for 6-7 hours. Cells were then harvested onto filter plates for counting on a scintillation counter.

PDE6D = assay: Western blot of residual PDE6D protein level; type: cell-based; conditions: 1 μM Compound A vs 10 μM lenalidomide, 72 hours; EHEB, I83-E95, Mec2, CII, and CI
Description: Cells were then harvested and processed for SDS-PAGE and western blot. PDE6D antibody was purchased from Pierce and used at 1:300. For western blot quantification, the band intensity was measured using an Odyssey imager and then normalized to β-actin loading controls. Scatter plot: […]

[2] = Cmp A vs. len, Case B1, 10 μM, 24 hours
[3] = Cmp A vs. len, Case B2, 10 μM, 24 hours
[4] = Cmp A vs. len, Case B3, 10 μM, 24 hours
[5] = FIG. 5 heatmap, 10 μM, 24 hours, vs DMSO

Cc1nc2cccc(N)c2c(=O)n1C1CCC(=O)NC1=O (stereo not drawn) [Compound A, 3-(5-amino-2-methyl-4-oxo-4H-quinazolin-3-yl)-piperidine-2,6-dione]
logFC IRF8 (Q02556) (primary CLL samples; [2]): −0.5643
logFC KLF13 (Q9Y2Y9) (primary CLL samples; [2]): −1.092
logFC LGALS9 (O00182) (primary CLL samples; [2]): −0.5646
logFC MARCKS (P29966) (primary CLL samples; [2]): 1.438
logFC NDE1 (Q9NXR1) (primary CLL samples; [2]): 0.7281
logFC NFKBIE (O00221) (primary CLL samples; [2]): −0.7408
logFC PTK2B (Q14289-2) (primary CLL samples; [2]): 0.9815
logFC SAMSN1 (Q9NSI8) (primary CLL samples; [2]): 0.6554
logFC SELL (P14151-2) (primary CLL samples; [2]): −1.823
logFC SLAMF1 (Q13291) (primary CLL samples; [2]): 0.9251
logFC SNX20 (Q7Z614) (primary CLL samples; [2]): −0.5611
logFC SOD2 (P04179) (primary CLL samples; [2]): 0.6081
logFC TCF7 (P36402-3) (primary CLL samples; [2]): −0.7071
logFC TRAF1 (Q13077) (primary CLL samples; [2]): 0.768
logFC WIZ (M0QXA7) (primary CLL samples; [2]): −0.4839
logFC ZBTB10 (Q96DT7) (primary CLL samples; [2]): 0.9382
logFC IKZF1 (Q13422) (primary CLL samples; [3]): −2.186
logFC IKZF3 (Q9UKT9) (primary CLL samples; [3]): −2.626
logFC CD40 (P25942) (primary CLL samples; [4]): 0.8064
logFC CR2 (P20023-3) (primary CLL samples; [4]): 0.7925
logFC CTSS (P25774) (primary CLL samples; [4]): 0.5932
logFC GBP1 (P32455) (primary CLL samples; [4]): 1.117
logFC IKZF1 (Q13422) (primary CLL samples; [4]): −2.686
logFC IKZF3 (Q9UKT9) (primary CLL samples; [4]): −1.425
logFC ISG20 (Q96AZ6) (primary CLL samples; [4]): 0.6234
logFC PTK2B (Q14289-2) (primary CLL samples; [4]): 0.8361
logFC SAMSN1 (Q9NSI8) (primary CLL samples; [4]): 0.89
logFC SASH1 (O94885) (primary CLL samples; [4]): 0.7177
logFC SELL (P14151-2) (primary CLL samples; [4]): −1.03
logFC SEMA7A (O75326) (primary CLL samples; [4]): 0.904
logFC SLAMF1 (Q13291) (primary CLL samples; [4]): 1.086
logFC SOD2 (P04179) (primary CLL samples; [4]): 0.6319
logFC TRAF1 (Q13077) (primary CLL samples; [4]): 0.7523
logFC PDE6D (O43924) (primary CLL samples; Cmp A vs. len, Case B4, 10 μM, 24 hours): −1.494
IKZF1 (Ikaros) protein level (primary CLL samples; [5]): decreases across all experimental conditions with stronger effect upon Compound A exposure
levels of Group 4 proteins (6 proteins including IKZF3 and a second IKZF1 isoform) upon exposure (primary CLL samples; [5]): decrease significantly
protein abundance levels of Group 3 proteins (SMNX20, SELL, KLF13, WIZ, IKZF1, NFKBIE, TCF7 and IRF8) upon exposure (primary CLL samples; [5]): decrease
STAT1 protein abundance, log 2 fold-change vs DMSO (primary CLL samples; resistant scenario (Case B4)): −0.018
STAT1 protein abundance, log 2 fold-change vs DMSO (primary CLL samples; sensitive patient sample (Case B3)): 0.547
effect on cell proliferation ([1]; samples from the fourth group of patients (Case B4)): neither Compound A nor lenalidomide had any effect on cell proliferation
effect on cell proliferation ([1]; samples from the second group of patients (Case B2)): stronger proliferation reduction effect than lenalidomide
effect on cell proliferation ([1]; samples from the third group of patients (Case B3)): reduced cell proliferation
cell growth inhibition (CLL cell lines; 1 μM Compound A vs 10 μM lenalidomide, EHEB, I83-E95, Mec2, CII, and CI): more cell growth inhibition
responsiveness of cell lines to treatment (CLL cell lines; Bucket #1 (EHEB and I83-E95)): responsive to both compounds
responsiveness of cell lines to treatment (CLL cell lines; Bucket #2 (Mec2, CII, and CI)): more sensitive to Compound A than to lenalidomide
responsiveness of cell lines to treatment (CLL cell lines; Bucket #3 (WA-C3-CD5, WA-OSEL, Mec1, and PGA1)): responsive to Compound A
responsiveness of cell lines to treatment (CLL cell lines; Bucket #4 (HG3)): not responsive to either Compound A or lenalidomide
PDE6D reduction (PDE6D): more PDE6D reduction
